Source: patent US11479553B2, “5-5 fused rings as C5a inhibitors” (CHEMOCENTRYX, INC., priority 2017, dated 2022)

target: C5aR (Homo sapiens (Human), UniProt P21730); experiment: Chemotaxis assay (inhibition of C5aR mediated migration toward C5a); assay type: cell-based; details: inhibition in the chemotaxis assay (Example 14 B.3); U937 or neutrophil cells, C5a as chemoattractant
Protocol: U937 cells are a monocytic cell line which express C5aR, and are available from ATCC (VA). These cells were cultured as a suspension in RPMI-1640 medium supplemented with 2 mM L-glutamine, 1.5 g/L sodium bicarbonate, 4.5 g/L glucose, 10 mM HEPES, 1 mM sodium pyruvate, and 10% FBS. Cells were grown under 5% CO2/95% air, 100% humidity at 37° C. and subcultured twice weekly at 1:6 (cells were cultured at a density range of 1×10^5 to 2×10^6 cells/mL) and harvested at 1×10^6 cells/mL. Prior to assay, cells are treated overnight with 0.5 mM of cyclic AMP (Sigma, OH) and washed once prior to use. cAMP treated U937 cells can be used in C5aR ligand binding and functional assays.
Optionally, human or murine neutrophils can be used to assay for compound activity. Neutrophils may be isolated from fresh human blood using density separation and centrifigation. Briefly, whole blood is incubated with equal parts 3% dextran and allowed to separate for 45 minutes. After separation, the top layer is layered on top of 15 mls of Ficoll (15 mls of Ficoll for every 30 mls of blood suspension) and centrifuged for 30 minutes at 400×g with no brake. The pellet at the bottom of the tube is then isolated and resuspended into PharmLyse RBC Lysis Buffer (BD Biosciences, San Jose, Calif.) after which the sample is again centrifuged for 10 minutes at 400×g with brake. The remaining cell pellet is resuspended as appropriate and consists of isolated neutrophils.
Optionally, compounds may be further assayed for their ability to inhibit chemotaxis in cells. Chemotaxis assays are performed using 5 μm pore polycarbonate, polyvinylpyrrolidone-coated filters in 96-well chemotaxis chambers (Neuroprobe; Gaithersburg, Md.) using chemotaxis buffer (Hank's balanced salt solution (HBSS) and 1% FBS). C5aR ligands (i.e., C5a, R&D Systems; Minneapolis, Minn.) are use to evaluate compound mediated inhibition of C5aR mediated migration. Other chemokines (i.e., SDF-1α; R&D Systems; Minneapolis, Minn.) are used as specificity controls. The lower chamber is loaded with 29 μl of chemokine (i.e., 0.03 nM C5a) and varying amounts of compound; the top chamber contains 100,000 U937 or neutrophil cells in 20 μl. The chambers are incubated 1.5 hours at 37° C., and the number of cells in the lower chamber quantified either by direct cell counts in five high powered fields per well or by the CyQuant assay (Molecular Probes), a fluorescent dye method that measures nucleic acid content and microscopic observation.

C5aR, sequence (P21730 whole entry): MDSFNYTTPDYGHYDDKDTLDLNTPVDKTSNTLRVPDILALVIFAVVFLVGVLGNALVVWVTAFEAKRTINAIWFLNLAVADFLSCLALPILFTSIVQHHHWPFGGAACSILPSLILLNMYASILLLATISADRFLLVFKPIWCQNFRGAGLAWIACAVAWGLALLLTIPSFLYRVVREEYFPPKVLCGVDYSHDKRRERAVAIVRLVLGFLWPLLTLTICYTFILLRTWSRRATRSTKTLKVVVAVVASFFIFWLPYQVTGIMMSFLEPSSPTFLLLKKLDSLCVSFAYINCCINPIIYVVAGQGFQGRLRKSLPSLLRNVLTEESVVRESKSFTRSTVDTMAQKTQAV

IC50 [nM]	SMILES
50 to 500	CCc1cccc(CC)c1-n1nc2c(c1-c1ccc(F)c3[nH]ccc13)CN(CC(C)(C)C)C2(C)C [Compound 1.009]
< 5	CCc1cccc(CC)c1-n1nc2c(c1-c1ccc(F)c3[nH]ccc13)CN(CC(C)(C)C(F)(F)F)C2(C)C [Compound 1.032]
≥ 500	Cc1cccc(C)c1-n1nc2c(c1-c1ccc3[nH]ccc3c1)CN(CC(C)(C)C)C2 [Compound 1.051]
5 to 50	CCc1cccc(CC)c1-n1nc2c(c1-c1ccc(F)c3[nH]ccc13)CN(C(=O)C(C)(C)C(F)(F)F)C2(C)C [Compound 1.033]
